The results in this text go back to patent US12527798B2, “Preservation of immune response during chemotherapy regimens” (Pharmacosmos Holding A/S, priority 2016, dated 2026).

In test [1] the test system is MC38 tumor cells. In kind it is in vivo. The following applies: dosing schedule not given, anti-PD-L1 combination study. As for the experimental part: Anti-tumor activity of Compound I in combination with PD-L1 (clone 10F.9G2) and oxaliplatin was evaluated in the MC38 syngeneic murine colon carcinoma model. For all xenograft studies, nine-week old female C57BL/6 mice (C57BL/6NCrl) were implanted with MC38 tumor cells and treatment was initiated when mean tumor volume was approximately 100 mm^3.
Briefly, Compound I (100 mg/kg) and oxaliplatin (10 mg/kg) were administered intraperitoneally (IP) once weekly for three doses and the checkpoint inhibitor administration was varied as depending on the dosing schedule. In the Induction (I) dosing schedule, mouse anti-PD-L1 (100 μg/animal, IP) was given twice weekly for two weeks starting on Day 1 and ending on Day 15. In the Maintenance (M) dosing schedule, mouse anti-PD-L1 (100 μg/animal, IP) was given twice weekly starting on Day 15 and continuing through the end of study. In the Induction+Maintenance (IM) dosing schedule, mouse anti-PD-L1 (100 μg/animal, IP) was given twice weekly starting on Day 1 and continuing through the end of study.
Single, two, and three drug combinations were tested and Compound I was administered 30 minutes prior to chemotherapy treatment. Complete response (CR) and partial response (PR) were calculated using standard Charles River Laboratories (CRL; RTP, NC) criteria. Body weight (BW) and health were monitored, and tumor volume was measured twice weekly. The individual tumor volume endpoint was 1000 mm^3 or Day 100, whichever came first. The arms of the study included the following: • 1) vehicle • 2) Compound I+anti-PD-L1 (clone 10F.9G2), IM dosing schedule • 3) Compound I+Oxaliplatin+anti-PD-L1 (clone 10F.9G2), IM dosing schedule • 4) Oxaliplatin+anti-mouse PD-L1 (clone 10F.9G2), M dosing schedule • 5) Compound I+oxaliplatin+anti-mouse PD-L1 (clone 10F.9G2), M dosing schedule • 6) oxaliplatin+anti-mouse PD-L1 (clone 10F.9G2), I dosing schedule • 7) Compound I+oxaliplatin+anti-mouse PD-L1 (clone 10F.9G2), I dosing schedule

Test [2] has as its system splenocytes. In words: Ex vivo splenocyte stimulation, IL-2 and IFNγ ELISA after 5-FU treatment (Example 6). Format: in vivo, C57BL/6 mice. The following applies: Compound I 100 mg/kg added to 5-FU 50 mg/kg, 3 daily IP doses, splenocytes stimulated with anti-CD3/CD28 72 h. The protocol: C57BL/6 mice were treated with 3 daily IP doses of 50 mg/kg 5-FU±100 mg/kg Compound I. Two and seven days after the final treatment, mice were euthanized and spleens were harvested. Splenocytes were stimulated ex vivo with anti-CD3/CD28 antibodies for 72 hours and interferon gamma (IFNγ) or interleukin-2 (IL-2) levels were measured via ELISA (R&D systems). After the ex-vivo splenocyte stimulation in C57BL/6 mice, Compound I enhanced IL-2 production (FIG. 12) and preserved IFNγ production (FIG. 13) after 5-FU treatment. A potential mechanism by which Compound I enhances anti-tumor activity includes the preservation of T lymphocyte function from chemotherapy.
In general terms: In an ELISA, binding on a coated surface is turned into a signal by an enzyme label.

In test [3] the test system is CD4+ and CD8+ T cells. The test is described as follows: T cell activation (CD69, IL-2) in splenocytes of MC38 tumor-bearing mice (Example 8). Format: in vivo. The note with it: Compound I added to oxaliplatin and anti-PD-L1, four days; spleen; FIGS. 16, 17. The text has this: Twenty-four hours after the final dose, the mice were euthanized and spleens were harvested and processed to single-cell suspensions for T-cell analysis. Splenocytes were stained with anti-CD4, CD8, and CD69 antibodies for flow cytometric analysis. The percentage of activated CD4+ T cells was defined as the proportion of CD69+ cells within the CD8−CD4+ T cell fraction, while the percentage of activated CD8+ T cells was defined as the proportion of CD69+ cells within the CD8+CD4− T cell fraction, the results of which are shown in FIGS. 16 and 17. Additionally, splenocytes were also stimulated ex-vivo with anti-CD3/CD28 antibodies for 72 hours and were stained with anti-CD4, CD8, and IL-2 antibodies for flow cytometric analysis. The percentage of IL-2+ cells was defined as the proportion of IL-2+ cells within the […] T cell fraction, the results of which are shown in FIG. 18.

Test [4] has as its system MC38 tumors. In words: Whole-tumor interferon-gamma (Ifng) expression, PanCancer Immune Profiling Panel (Example 13). The note with it: Compound I added to oxaliplatin or oxaliplatin/anti-PD-L1 combinations, eight days; FIGS. 28-31. Format: in vivo, C57BL/6 mice. As for the experimental part:
Twenty-four hours after the final dose, mice were euthanized and tumors were harvested for analysis. Gene expression analysis was performed on whole tumors using the PanCancer Immune Profiling Panel. The normalized and Log 2 transformed expression level of interferon-gamma (Ifng) is plotted for each pair of treatment groups with or without Compound I. T=Compound I, O=oxaliplatin, P=anti-PD-L1.

For `CN1CCN(c2ccc(Nc3ncc4cc5n(c4n3)C3(CCCCC3)CNC5=O)nc2)CC1` [Compound I, trilaciclib], in test [1], the “Complete Response %” value turned out to be 0%, the “Objective Response Rate %” value stood at 0%, the “Overall Survival (OS)” value is listed as 19 and the “Partial Response %” value worked out at 0%. Further, the IL-2 production result in test [2] (FIG. 12) is given as “enhanced”. Also, the IFNγ production result in test [2] (FIG. 13) is reported as “preserved”. The “T cell activation (CD69+ CD4+ and CD8+ T cells)” value in test [3] was “Enhanced T Cell Activation”. Moreover, the “interferon-gamma gene expression in tumor” value in test [4] was “Upregulation”.
